In patent publication US8354455B2, “Prodrugs containing novel bio-cleavable linkers” (Piramal Enterprises Limited and Apparao Satyam, priority 2004, dated 2013):
“Also recorded” adds a separate entry of the source. Like-named read-outs stand apart in the source and are kept apart here. Marks after values point to notes of the source that are not given here.

Experiments:
[1] = test system: MES-induced seizures; test: Maximal Electroshock Test (MES), Test 1, mice i.p.; type: in vivo; conditions: for activity in MES model (in words): Test 1, mice i.p.; for minimal effective dose: Mus musculus, ip; for minimal effective dose / MES 0.5 h / MES 4.0 h: symbol = dose with activity; for MES, at 2 hours after dosing: 2 h (footnote h; printed in 4.0 h column)
[2] = test system: rats; test: Neurotoxicity, rats p.o. (Test 2 and Test 3); conditions: Test 2, rats p.o.
Text: Acute Toxicity—Minimal Motor Impairment (MMI): To assess a compound's undesirable side effects (toxicity), animals were monitored for overt signs of impaired neurological or muscular function.
Groups of at least 8 rats received various doses of the candidate compound until at least two points were established between the limits of 100 percent protection or toxicity and zero percent protection or minimal toxicity. The 95 percent confidence limits, slopes of the regression lines and standard errors of the slopes were calculated for each quantitative determination. Rats received test compounds orally.
This secondary evaluation determines the time to peak effect (TPE), neurotoxicity, median effective dose (ED50) and biological response.

[3] = test system: mice; conditions: for toxicity (in words): Test 1, mice i.p.; for Rotorod Toxicity 4.0 h / Rotorod Toxicity (number of animals exhibiting toxicity/number of animals tested) / Rotorod Toxicity 0.5 h: mice, i.p.; for Rotorod Toxicity 4.0 h / Rotorod Toxicity 0.5 h: symbol = dose with toxicity; for Rotorod Toxicity (number of animals exhibiting toxicity/number of animals tested) / Rotorod Toxicity 0.5 h: 0.5 h
[4] = test system: convulsant metrazol; test: Subcutaneous Metrazol Seizure Threshold Test (scMET), Test 1, mice i.p.; type: in vivo; conditions: for ScMET 0.5 h / ScMET 4.0 h / ScMET (number of animal protected/number of animal tested): mice, i.p.; for ScMET 0.5 h / ScMET 4.0 h / minimal effective dose: symbol = dose with activity; for minimal effective dose: Mus musculus, ip; for ScMET (number of animal protected/number of animal tested): 300 mg/kg (+)
[5] = test system: MES-induced seizures; test: animal or person; type: in vivo, rats; conditions: Test 2, rats p.o., 150 mg/kg
[6] = mice, i.p., 4.0 h, 300 mg/kg (+)
[7] = 0.5 h, read-out: MES 0.5 h, mice, i.p., 0.5 h
[8] = 0.5 h, read-out: ScMET 0.5 h, mice, i.p., 0.5 h
[9] = 4 h, read-out: ScMET 4.0 h, mice, i.p., 4.0 h
[10] = 4 h, read-out: MES 4.0 h, mice, i.p., 4.0 h
[11] = mice, i.p., 0.5 h, 300 mg/kg (+)

SMILES | activity in MES model (in words) [1] | MES (number of animal protected/number of animal tested) [1, 6] | Toxicity (number of animals exhibiting toxicity/number of animals tested) ([2]; 30 mg/kg, 1.00 h) | Toxicity (number of animals exhibiting toxicity/number of animals tested) ([2]; 30 mg/kg, 2.00 h) | Toxicity (number of animals exhibiting toxicity/number of animals tested) ([2]; 30 mg/kg, 4.00 h) | toxicity (in words) [3] | ScMET 0.5 h ([4]; 0.5 h) | minimal effective dose [1, 7] [mg/kg] | Rotorod Toxicity 4.0 h [3] | minimal effective dose [4, 8] [mg/kg] | minimal effective dose [4, 9] [mg/kg] | minimal effective dose [1, 10] [mg/kg] | MES (number of animal protected/number of animal tested) [1, 11] | Rotorod Toxicity (number of animals exhibiting toxicity/number of animals tested) ([3]; 300 mg/kg (+)) | Rotorod Toxicity 0.5 h [3] | ScMET (number of animal protected/number of animal tested) ([4]; 0.5 h) | further results
CS(=O)(=O)NC(=O)OCCSSCCOC(=O)Nc1nnc(-c2cccc(Cl)c2Cl)c(N)n1 [I-A1-PD15] | active in MES | (1/1) | 0/4 | 0/4 | 0/4 | no or mild toxicity | — (— = no activity or no toxicity at 300 mg/kg) |  |  |  |  |  |  |  |  |  | Toxicity (number of animals exhibiting toxicity/number of animals tested) ([2]; 30 mg/kg, 0.50 h): 0/4; ScMET 4.0 h [4]: — (— = no activity or no toxicity at 300 mg/kg)
Nc1nc(NC(=O)OCCSSCCOC(=O)NCC2(CC(=O)O)CCCCC2)nnc1-c1cccc(Cl)c1Cl [I-AA-MPD11] | active in MES | (1/1) | 0/4 | 0/4 | 0/4 | no or mild toxicity |  | > 300 | — (— = no activity or no toxicity at 300 mg/kg) | > 300 | > 300 |  |  |  |  |  | 
CCOC(=O)CC1(CNC(=O)OCCSSCCO[N+](=O)[O-])CCCCC1 [I-A1-NOPD1] |  |  |  |  |  |  |  | < 300 | — (— = no activity or no toxicity at 300 mg/kg) | > 300 | > 300 | > 300 |  |  |  |  | MES, at 0.25 hours after dosing ([1]; mice, i.p., 0.25 h (footnote k; printed in 0.5 h column)): ++ (++ = activity or toxicity at 100 mg/kg)
CCOC(=O)CC1(CNC(=O)OCCSSCCOC(=O)NC(CO)C(=O)OC)CCCCC1 (stereo not shown) [I-A1-PD6] |  |  |  |  |  |  |  | < 300 | — (— = no activity or no toxicity at 300 mg/kg) | < 300 | > 300 | > 300 | (1/1) | (4/4)^i | + (+ = activity or toxicity at 300 mg/kg) | (1/1) | 
Nc1nc(NC(=O)OCCSSCCOC(=O)c2cccnc2)nnc1-c1cccc(Cl)c1Cl [I-CA-MPD24] | active in MES |  | 0/4 | 0/4 | 0/4 | non-toxic; also recorded: no or mild toxicity | — (— = no activity or no toxicity at 300 mg/kg) |  | — (— = no activity or no toxicity at 300 mg/kg) |  |  |  |  |  | — (— = no activity or no toxicity at 300 mg/kg) |  | MES 0.5 h ([1]; mice, i.p., 0.5 h): — (— = no activity or no toxicity at 300 mg/kg); MES, at 2 hours after dosing ([1]; mice, i.p.): ++ (++ = activity or toxicity at 100 mg/kg); MES (number of animal protected/number of animal tested) ([1]; mice, i.p., 2 h after dosing, 100 mg/kg (++)): (3/3)^h; MES 4.0 h ([1]; mice, i.p., 4.0 h): ++ (++ = activity or toxicity at 100 mg/kg); MES, at 6 hours after dosing ([1]; mice, i.p., 6 h (footnotes g, m; printed in 4.0 h column)): ++ (++ = activity or toxicity at 100 mg/kg); MES (number of animal protected/number of animal tested) ([1]; mice, i.p., 6 h after dosing, 100 mg/kg (++)): (3/3)^m; Toxicity (number of animals exhibiting toxicity/number of animals tested) ([2]; 30 mg/kg, 0.50 h): 0/4; activity in scMET model (in words) ([4]; Test 1, mice i.p.): active
CCOC(=O)CC1(CNC(=O)OCCSSCCOC(C)=O)CCCCC1 [I-A1-PD13] |  |  |  |  |  |  |  | < 300 | — (— = no activity or no toxicity at 300 mg/kg) | < 300 | > 300 | > 300 | (1/1) | (1/4) | + (+ = activity or toxicity at 300 mg/kg) | (1/1) | 
CCOC(=O)CC1(CNC(=O)OCCSSCCO)CCCCC1 [I-A1-PD8] |  | (1/1) |  |  |  |  |  |  | — (— = no activity or no toxicity at 300 mg/kg) | > 300 | > 300 | > 300 | (1/1) | (4/4)^f |  | (1/1) | MES (number of animal protected/number of animal tested) ([1]; mice, i.p., 0.5 h, 100 mg/kg (++)): (2/3)
CCOC(=O)CC1(CNC(=O)OCCSSCCOC(=O)NC(CCC(=O)OC)C(=O)OC)CCCCC1 (stereo not shown) [I-A1-PD7] |  |  |  |  |  |  |  | < 300 | — (— = no activity or no toxicity at 300 mg/kg) | < 300 | > 300 | > 300 | (1/1) | (2/4)^d | + (+ = activity or toxicity at 300 mg/kg) | (1/1)^e | 
CCOC(=O)CC1(CNC(=O)OCCSSCCOC(=O)NCCN(C)C)CCCCC1 [I-A1-PD10] |  |  |  |  |  |  |  | > 300 |  | > 300 | > 300 | > 300 |  |  | ++ (++ = activity or toxicity at 100 mg/kg) |  | Rotorod Toxicity (number of animals exhibiting toxicity/number of animals tested) ([3]; 100 mg/kg (++)): (8/8)^j
CCCC(CCC)C(=O)OCCSSCCOC(=O)Nc1nnc(-c2cccc(Cl)c2Cl)c(N)n1 [I-CA-MPD23] | active in MES | (1/3) |  |  |  | no or mild toxicity | — (— = no activity or no toxicity at 300 mg/kg) |  |  |  |  |  |  |  |  |  | MES 0.5 h ([1]; mice, i.p., 0.5 h): — (— = no activity or no toxicity at 300 mg/kg); MES, at 2 hours after dosing ([1]; mice, i.p.): ++ (++ = activity or toxicity at 100 mg/kg); MES 4.0 h ([1]; mice, i.p., 4.0 h): + (+ = activity or toxicity at 300 mg/kg); MES (number of animal protected/number of animal tested) ([5]; 4.00 h): 4/4; MES (number of animal protected/number of animal tested) ([5]; 6.00 h): 4/4; MES (number of animal protected/number of animal tested) ([5]; 8.00 h): 4/4; Toxicity (number of animals exhibiting toxicity/number of animals tested) ([2]; 150 mg/kg, 2.00 h): 0/4; Toxicity (number of animals exhibiting toxicity/number of animals tested) ([2]; 150 mg/kg, 4.00 h): 0/4; Toxicity (number of animals exhibiting toxicity/number of animals tested) ([2]; 150 mg/kg, 6.00 h): 0/4; Toxicity (number of animals exhibiting toxicity/number of animals tested) ([2]; 150 mg/kg, 8.00 h): 0/4; ScMET 4.0 h [4]: — (— = no activity or no toxicity at 300 mg/kg)
Cl.Nc1nc(NC(=O)OCCSSCCNC(=O)c2cccnc2)nnc1-c1cccc(Cl)c1Cl [I-CA-MPD25] | active in MES | (1/1) | 0/4 | 0/4 | 0/4 | no or mild toxicity | — (— = no activity or no toxicity at 300 mg/kg) |  | — (— = no activity or no toxicity at 300 mg/kg) |  |  |  |  |  | — (— = no activity or no toxicity at 300 mg/kg) |  | Toxicity (number of animals exhibiting toxicity/number of animals tested) ([2]; 30 mg/kg, 0.50 h): 0/4; ScMET 4.0 h [4]: — (— = no activity or no toxicity at 300 mg/kg)
CCOC(=O)CC1(CNC(=O)OCCSSCCOC(=O)NC(=O)[C@H](CC)N2CCCC2=O)CCCCC1 [I-AA-MPD13] |  |  |  |  |  |  |  | > 300 | — (— = no activity or no toxicity at 300 mg/kg) | < 300 | > 300 | > 300 |  |  | + (+ = activity or toxicity at 300 mg/kg) |  | 
